We go through 40 molecules from US8648068B2, “Heterocycloalkyl-containing thienopyrimidines for pharmaceutical compositions” (Boehringer Ingelheim International GmbH, priority 2010, dated 2014).

Counter-ions that a name gives are not always drawn.

Experiment [1] relates to Mnk2 (Mnk2a or Mnk2b) or Mnk1. As to conditions: cell culture cells transfected with Mnk2 (Mnk2a or Mnk2b) or Mnk1; cited from earlier work.
For a further experiment, the target named is T1, human Mnk2a (Homo sapiens, UniProt Q9HBH9).
T1 construct: made in house; host or cells: E. coli BL21 (vector pGEX-4T1)
T1 sequence (Q9HBH9 whole entry): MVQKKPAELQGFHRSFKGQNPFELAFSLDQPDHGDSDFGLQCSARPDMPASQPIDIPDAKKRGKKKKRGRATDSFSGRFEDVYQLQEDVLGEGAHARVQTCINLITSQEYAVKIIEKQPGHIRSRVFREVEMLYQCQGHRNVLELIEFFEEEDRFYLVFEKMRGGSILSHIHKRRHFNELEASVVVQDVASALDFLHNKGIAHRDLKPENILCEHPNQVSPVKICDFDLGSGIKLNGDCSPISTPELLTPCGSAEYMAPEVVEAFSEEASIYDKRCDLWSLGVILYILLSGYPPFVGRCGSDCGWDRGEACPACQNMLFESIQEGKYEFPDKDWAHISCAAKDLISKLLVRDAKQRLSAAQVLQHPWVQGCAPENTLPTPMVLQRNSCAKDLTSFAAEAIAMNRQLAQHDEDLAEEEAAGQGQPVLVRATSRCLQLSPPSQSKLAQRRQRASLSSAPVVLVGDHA
Description: Mnk2a in vitro kinase assay (indirect fluorescence polarization). Particulars: GST-Mnk2a pre-activated with ERK2, 20 μM ATP, 30 μM substrate peptide; read-out: MNK2 IC50. It is filed as biochemical. The gist of the method:
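Indirect competitive fluorescence polarization: kinase-generated phospho-product displaces a fluorophore-labelled phospho-peptide from a phospho-specific antibody. Enzyme is N-terminal GST-Mnk2a from E. coli, activated with pre-activated ERK2 and 50 μM ATP; substrate is an amidated 12-mer peptide around eIF4E Ser209.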
In general terms: In fluorescence polarisation assays a small probe gives low polarisation when free and higher when bound to something large.

For `Nc1ncnc2n[nH]c(Nc3ccc(F)cc3)c12` [CGP57380], in experiment [1], the “reduction of phosphorylated eIF4E” value is reported as “strong reduction”.
One may read the IC50 as the concentration that inhibits the measured activity by half. Turning to `Cc1c(C(=O)NCCC[S+](C)[O-])sc2ncnc(Nc3ccc(F)cc3OC3CCOCC3)c12` (stereo not shown) [Example 236], on human Mnk2a, the concentration for half-maximal inhibition (IC50) came to 33 nM.
Take `CSCCCNC(=O)c1sc2ncnc(Nc3ccc(F)cc3OC3CCOCC3)c2c1C` [Example 237]: at human Mnk2a, the IC50 is 36 nM.
On to `Cc1c(C(=O)NCC[S+](C)[O-])sc2ncnc(Nc3ccc(F)cc3OC3CCOCC3)c12` (stereo not shown) [Example 238], for which the IC50 at human Mnk2a worked out at 32 nM.
Turning to `CONC(=O)c1sc2ncnc(Nc3ccc(F)cc3OC3CCOCC3)c2c1C` [Example 239], the half-maximal inhibitory concentration (IC50) at human Mnk2a was 41 nM.
Still for that read-out and setting: to `Cc1c(C(=O)N[C@H]2CCN(C(=O)OC(C)(C)C)C[C@@H]2O)sc2ncnc(Nc3ccc(F)cc3OC3CCOCC3)c12` [Example 241] belongs 36 nM.
On the same count and under the same terms, the result for `Cc1c(C(=O)N[C@H]2CCCC[C@@H]2O)sc2ncnc(Nc3ccc(F)cc3OC3CCOCC3)c12` [Example 243] reads 49 nM; that for `Cc1c(C(=O)NO)sc2ncnc(Nc3ccc(F)cc3OC3CCOCC3)c12` [Example 244], 19 nM; that for `COCCONC(=O)c1sc2ncnc(Nc3ccc(F)cc3OC3CCOCC3)c2c1C` [Example 245], 39 nM.
Consider `Cc1c(C(=O)N[C@H]2CCNC[C@@H]2O)sc2ncnc(Nc3ccc(F)cc3OC3CCOCC3)c12` [Example 246], for which, on human Mnk2a, the IC50 turned out to be 18 nM.
The same measure, in the same setting: the result for `Cc1c(C(=O)Nc2ccn(C)c(=O)n2)sc2ncnc(Nc3ccc(F)cc3OC3CCOCC3)c12` [Example 247] reads 44 nM; that for `CCN(CC)CC(O)CNC(=O)c1sc2ncnc(Nc3ccc(F)cc3OC3CCOCC3)c2c1C` (stereo not shown) [Example 248], 41 nM; that for `Cc1c(C(=O)NCCCN2CC[C@@H](O)C2)sc2ncnc(Nc3ccc(F)cc3OC3CCOCC3)c12` [Example 249], 21 nM.
The same measure, in the same setting: to `Cc1c(C(=O)NCCCN2CC[C@H](O)C2)sc2ncnc(Nc3ccc(F)cc3OC3CCOCC3)c12` [Example 251] belongs 28 nM; to `Cc1c(C(=O)N2CCCCC2CN2CCOCC2)sc2ncnc(Nc3ccc(F)cc3OC3CCOCC3)c12` (stereo not shown) [Example 252], 8420 nM.
As to `Cc1c(C(=O)NCCCN2CCC(O)CC2)sc2ncnc(Nc3ccc(F)cc3OC3CCOCC3)c12` [Example 253], the 50% inhibitory concentration (IC50) on human Mnk2a worked out at 34 nM.
Take `Cc1c(C(=O)N[C@H]2CCC[C@@H]2O)sc2ncnc(Nc3ccc(F)cc3OC3CCOCC3)c12` [Example 254]: the IC50 on human Mnk2a came to 42 nM.
Same read-out and setting: to `Cc1c(C(=O)N[C@@H]2CCC[C@H]2O)sc2ncnc(Nc3ccc(F)cc3OC3CCOCC3)c12` [Example 255] belongs 22 nM; to `Cc1c(C(=O)NCC(O)CN(C)C)sc2ncnc(Nc3ccc(F)cc3OC3CCOCC3)c12` (stereo not shown) [Example 256, 4-[4-Fluoro-2-(tetrahydro-pyran-4-yloxy)-phenylamino]-5-methyl-thieno[2,3-d]pyrimidine-6-carboxylic acid (3-dimethylamino-2-hydroxy-propyl)-amide-hydrochloride], 37 nM.
As for `Cc1c(C(=O)NC2CCN(C)C[C@@H]2O)sc2ncnc(Nc3ccc(F)cc3OC3CCOCC3)c12` (stereo partly drawn) [Example 257, 4-[4-Fluoro-2-(tetrahydro-pyran-4-yloxy)-phenylamino]-5-methyl-thieno[2,3-d]pyrimidine-6-carboxylic acid ((S)-3-hydroxy-1-methyl-piperidin-4-yl)-amide-hydrochloride], on human Mnk2a, the IC50 was determined as 40 nM.
Take `Cc1c(C(=O)NCCCN2CCCC2)sc2ncnc(Nc3ccc(F)cc3O[C@@H]3CCCOC3)c12` [Example 258, 4-{4-Fluoro-2-[(R)-(tetrahydro-pyran-3-yl)oxy]-phenylamino}-5-methyl-thieno[2,3-d]pyrimidine-6-carboxylic acid (3-pyrrolidin-1-yl-propyl)-amide]: the IC50 on human Mnk2a turned out to be 20 nM.
The same measure, in the same setting: the result for `Cc1c(C(=O)NC2CCN(C)CC2)sc2ncnc(Nc3ccc(F)cc3O[C@@H]3CCCOC3)c12` [Example 259, 4-{4-Fluoro-2-[(R)-(tetrahydro-pyran-3-yl)oxy]-phenylamino}-5-methyl-thieno[2,3-d]pyrimidine-6-carboxylic acid (1-methyl-piperidin-4-yl)-amide] reads 38 nM; that for `Cc1c(C(=O)NCCO)sc2ncnc(Nc3cccnc3O[C@@H]3CCCOC3)c12` [Example 260, 5-Methyl-4-{2-[(R)-(tetrahydro-pyran-3-yl)oxy]-pyridin-3-ylamino}-thieno[2,3-d]pyrimidine-6-carboxylic acid (2-hydroxy-ethyl)-amide], 39 nM.
Turning to `CONC(=O)c1sc2ncnc(Nc3cccnc3O[C@@H]3CCCOC3)c2c1C` [Example 261], at human Mnk2a, the IC50 amounted to 46 nM.
As for `Cc1c(C(=O)NCCCN2CCCC2)sc2ncnc(Nc3cccnc3O[C@@H]3CCCOC3)c12` [Example 262], the IC50 at human Mnk2a is 53 nM.
Same read-out and setting: to `Cc1c(C(=O)NC2CCN(C)CC2)sc2ncnc(Nc3cccnc3O[C@@H]3CCCOC3)c12` [Example 263] belongs 115 nM; to `Cc1c(C(=O)NCC#CCN(C)C)sc2ncnc(Nc3cccnc3O[C@@H]3CCCOC3)c12` [Example 264], 23 nM.
As to `Cc1c(C(=O)NCCCN(C)C)sc2ncnc(Nc3cccnc3O[C@@H]3CCCOC3)c12` [Example 265], the IC50 at human Mnk2a is 34 nM.
Turning to `Cc1c(C(=O)NCC#N)sc2ncnc(Nc3cccnc3O[C@@H]3CCCOC3)c12` [Example 266], the 50% inhibitory concentration (IC50) at human Mnk2a came out at 25 nM.
Same read-out and setting: the result for `Cc1c(C(N)=O)sc2ncnc(Nc3cccnc3O[C@@H]3CCOC3)c12` [Example 267, 5-Methyl-4-{2-[(R)-(tetrahydro-furan-3-yl)oxy]-pyridin-3-ylamino}-thieno[2,3-d]pyrimidine-6-carboxylic acid amide] reads 36 nM; that for `Cc1c(C(=O)NCCCN(C)C)sc2ncnc(Nc3cccnc3O[C@@H]3CCOC3)c12` [Example 268], 100 nM; that for `Cc1c(C(N)=O)sc2ncnc(Nc3cccnc3O[C@H]3CCOC3)c12` [Example 269, 5-Methyl-4-{2-[(S)-(tetrahydro-furan-3-yl)oxy]-pyridin-3-ylamino}-thieno[2,3-d]pyrimidine-6-carboxylic acid amide], 34 nM.
As for `Cc1c(C(=O)NCCCN(C)C)sc2ncnc(Nc3cccnc3O[C@H]3CCOC3)c12` [Example 270, 5-Methyl-4-{2-[(S)-(tetrahydro-furan-3-yl)oxy]-pyridin-3-ylamino}-thieno[2,3-d]pyrimidine-6-carboxylic acid (3-dimethylamino-propyl)-amide], the IC50 on human Mnk2a worked out at 298 nM.
Same read-out and setting: the result for `Cc1c(C(=O)NC2CCN(C)CC2)sc2ncnc(Nc3ccc(F)cc3O[C@H]3CCOC3)c12` [Example 271, 4-{4-Fluoro-2-[(S)-(tetrahydro-furan-3-yl)oxy]-phenylamino}-5-methyl-thieno[2,3-d]pyrimidine-6-carboxylic acid (1-methyl-piperidin-4-yl)-amide] reads 40 nM; that for `Cc1c(C(=O)NC2CCCN(C(=O)OC(C)(C)C)CC2)sc2ncnc(Nc3ccc(F)cc3O[C@H]3CCOC3)c12` (stereo partly drawn) [Example 272, 4-[(4-{4-Fluoro-2-[(S)-(tetrahydro-furan-3-yl)oxy]-phenylamino}-5-methyl-thieno[2,3-d]pyrimidine-6-carbonyl)-amino]-azepane-1-carboxylic acid tert-butyl ester], 40 nM; that for `Cc1c(C(=O)NC2CCCNCC2)sc2ncnc(Nc3ccc(F)cc3O[C@H]3CCOC3)c12` (stereo partly drawn) [Example 273, 4-{4-Fluoro-2-[(S)-(tetrahydro-furan-3-yl)oxy]-phenylamino}-5-methyl-thieno[2,3-d]pyrimidine-6-carboxylic acid azepan-4-ylamide trifluoroacetate], 49 nM.
Turning to `Cc1c(C(=O)NCC#CCN(C)C)sc2ncnc(Nc3ccc(F)cc3O[C@@H]3CCOC3)c12` [Example 274], the IC50 on human Mnk2a was determined as 19 nM.
On the same count and under the same terms, the result for `CSCCCNC(=O)c1sc2ncnc(Nc3cccnc3OC3CCOCC3)c2c1C` [Example 279] reads 77 nM.
Turning to `Cc1c(C(=O)NCC[S+](C)[O-])sc2ncnc(Nc3cccnc3OC3CCOCC3)c12` (stereo not shown) [Example 280], the IC50 on human Mnk2a stood at 40 nM.
For the molecule `Cc1c(C(=O)NC2CCN(C)CC2)sc2ncnc(Nc3cccnc3OC3CCOCC3)c12` [Example 281], on human Mnk2a, the IC50 was found to be 42 nM.
